The record followed here is the NIST ThermoML archive (doi:10.1021/je060441j).

For data set [1] the following is noted: Liquid.
A short description of data set [2]: xn = mol fraction of the nth substance listed. The conditions noted are these: 101 kPa, Liquid, x1 = 1.

Numbers after ± are expanded uncertainties.

On to `c1ccccc1` [benzene], for which, in data set [1] (298.15 K, 101.33 kPa), the mass density (in general, mass per unit of volume) stood at 873.582 ± 0.16 kg/m3.

As to `CO` [methanol], the mass density in data set [1] (288.15 K, 101 kPa) is recorded as 796.093 ± 0.23 kg/m3; in data set [1] (293.15 K, 101 kPa), 791.4 ± 0.23 kg/m3; in data set [1] (298.15 K, 101 kPa), 786.694 ± 0.23 kg/m3; in data set [1] (303.15 K, 101 kPa), 781.966 ± 0.24 kg/m3; in data set [1] (308.15 K, 101 kPa), 777.213 ± 0.24 kg/m3; in data set [1] (313.15 K, 101 kPa), 772.443 ± 0.24 kg/m3.

Regarding `CO` [methanol] + ClC(Cl)Cl, the mass density in data set [2] (288.15 K) came out at 796.093 ± 0.23 kg/m3; in data set [2] (293.15 K), 791.4 ± 0.23 kg/m3; in data set [2] (298.15 K) it was 786.694 ± 0.23 kg/m3; in data set [2] (303.15 K), 781.966 ± 0.24 kg/m3; in data set [2] (308.15 K), 777.213 ± 0.24 kg/m3; in data set [2] (313.15 K) it was 772.443 ± 0.24 kg/m3.

As for `ClC(Cl)Cl` [trichloromethane], the mass density is reported as 1498.08 ± 0.47 kg/m3 in data set [1] (288.15 K, 101 kPa); 1488.64 ± 0.46 kg/m3 in data set [1] (293.15 K, 101 kPa); 1479.15 ± 0.45 kg/m3 in data set [1] (298.15 K, 101 kPa); 1469.61 ± 0.45 kg/m3 in data set [1] (303.15 K, 101 kPa); 1460.03 ± 0.44 kg/m3 in data set [1] (308.15 K, 101 kPa); 1450.41 ± 0.43 kg/m3 in data set [1] (313.15 K, 101 kPa).
